Results from patent US20200016136A1 (VIIV HEALTHCARE UK (NO. 5) LIMITED, priority 2017, published 2020).

Tested on: NL-RLuc virus (recombinant NL4-3 HIV with Renilla Luciferase gene)
Assay: Inhibition of HIV replication (NL-RLuc virus in MT-2 cells, luciferase readout)
Format: cell-based, Human immunodeficiency virus (HIV)
Conditions: MT2, 120 h
Procedure, shortened: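 MT-2 cells infected with NL4-3-derived virus carrying Renilla luciferase in place of part of nef, grown 5 days with serial compound dilutions in RPMI 1640/10% FBS. Virus growth read as luciferase expression. EC50 from median effect equation, at least 2 experiments.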

| SMILES | EC50 |
| --- | --- |
| Cc1ncc(-c2ccc3c(c2)CCN(c2nccc(-c4cccnc4)n2)C3)c(N2CCC(C)(C)CC2)c1[C@H](OC(C)(C)C)C(=O)O [Example 146, (S)-2-(tert-Butoxy)-2-(4-(4,4-dimethylpiperidin-1-yl)-2-methyl-5-(2-(4-(pyridin-3-yl)pyrimidin-2-yl)-1,2,3,4-tetrahydroisoquinolin-6-yl)pyridin-3-yl)acetic Acid] | 0.5 nM |
| Cc1nc(C)c([C@H](OC(C)(C)C)C(=O)O)c(N2CCC(C)(C)CC2)c1-c1ccc2c(c1)CCN(c1cc(N3CCOCC3)cnn1)C2 [Example 55, (S)-2-(tert-Butoxy)-2-(4-(4,4-dimethylpiperidin-1-yl)-2,6-dimethyl-5-(2-(5-morpholinopyridazin-3-yl)-1,2,3,4-tetrahydroisoquinolin-6-yl)pyridin-3-yl)acetic Acid] | 21 nM |
| Cc1nc(C)c([C@H](OC(C)(C)C)C(=O)O)c(N2CCC(C)(C)CC2)c1-c1ccc2c(c1)CCN(c1ncc(F)c(N3CCOCC3)n1)C2 [Example 38, (2S)-2-(tert-Butoxy)-2-[4-(4,4-dimethylpiperidin-1-yl)-5-{2-[5-fluoro-4-(morpholin-4-yl)pyrimidin-2-yl]-1,2,3,4-tetrahydroisoquinolin-6-yl}-2,6-dimethylpyridin-3-yl]acetic Acid] | 3 nM |
| Cc1cccc(Cl)c1CN1CCc2cc(-c3c(NC4CCN(C)CC4)nc(C)c([C@H](OC(C)(C)C)C(=O)O)c3N3CCC(C)(C)CC3)ccc2C1 [Example 8, (S)-2-(tert-Butoxy)-2-(5-(2-(2-chloro-6-methylbenzyl)-1,2,3,4-tetrahydroisoquinolin-6-yl)-4-(4,4-dimethylpiperidin-1-yl)-2-methyl-6-((1-methylpiperidin-4-yl)amino)pyridin-3-yl)acetic Acid] | 2 nM |
| Cc1nc(NCCCN2CCCCC2)c(-c2ccc3c(c2)CCN(c2ncnc4c2oc2ccccc24)C3)c(N2CCC(C)(C)CC2)c1[C@H](OC(C)(C)C)C(=O)O [Example 15, (S)-2-(5-(2-(Benzofuro[3,2-d]pyrimidin-4-yl)-1,2,3,4-tetrahydroisoquinolin-6-yl)-4-(4,4-dimethylpiperidin-1-yl)-2-methyl-6-((3-(piperidin-1-yl)propyl)amino)pyridin-3-yl)-2-(tert-butoxy)acetic Acid] | 2 nM |
| Cc1nc(C)c([C@H](OC(C)(C)C)C(=O)O)c(N2CCC(C)(C)CC2)c1-c1ccc2c(c1)CCN(c1nccc(N3C4COCC3COC4)n1)C2 [Example 33, (2S)-2-(tert-Butoxy)-2-[4-(4,4-dimethylpiperidin-1-yl)-5-[2-(4-{3,7-dioxa-9-azabicyclo[3.3.1]nonan-9-yl}pyrimidin-2-yl)-1,2,3,4-tetrahydroisoquinolin-6-yl]-2,6-dimethylpyridin-3-yl]acetic Acid] | 5 nM |
| Cc1nc(C)c([C@H](OC(C)(C)C)C(=O)O)c(N2CCC(C)(C)CC2)c1-c1ccc2c(c1)CCN(c1nccc(N3CCC(CC(C)(C)O)CC3)n1)C2 [Example 145, (S)-2-(tert-Butoxy)-2-(4-(4,4-dimethylpiperidin-1-yl)-5-(2-(4-(4-(2-hydroxy-2-methylpropyl)piperidin-1-yl)pyrimidin-2-yl)-1,2,3,4-tetrahydroisoquinolin-6-yl)-2,6-dimethylpyridin-3-yl)acetic Acid] | 10 nM |
| Cc1nc(C)c([C@H](OC(C)(C)C)C(=O)O)c(N2CCC(C)(C)CC2)c1-c1ccc2c(c1)CCN(c1cc(N3CCOCC3)nc(N3CCOCC3)n1)C2 [Example 86, (S)-2-(tert-Butoxy)-2-(4-(4,4-dimethylpiperidin-1-yl)-5-(2-(2,6-dimorpholinopyrimidin-4-yl)-1,2,3,4-tetrahydroisoquinolin-6-yl)-2,6-dimethylpyridin-3-yl)acetic Acid] | 4 nM |
| Cc1nc(C)c([C@H](OC(C)(C)C)C(=O)O)c(N2CCC(C)(C)CC2)c1-c1ccc2c(c1)CCN(c1cc(N3CCC(N4CCCCC4)CC3)ncn1)C2 [Example 135, (S)-2-(5-(2-(6-([1,4′-Bipiperidin]-1′-yl)pyrimidin-4-yl)-1,2,3,4-tetrahydroisoquinolin-6-yl)-4-(4,4-dimethylpiperidin-1-yl)-2,6-dimethylpyridin-3-yl)-2-(tert-butoxy)acetic Acid] | 19 nM |
| Cc1nc(C)c([C@H](OC(C)(C)C)C(=O)O)c(N2CCC(C)(C)CC2)c1-c1ccc2c(c1)CCN(c1nccc(N3C4CCC3COC4)n1)C2 [Example 32, (2S)-2-(tert-Butoxy)-2-[4-(4,4-dimethylpiperidin-1-yl)-2,6-dimethyl-5-[2-(4-{3-oxa-8-azabicyclo[3.2.1]octan-8-yl}pyrimidin-2-yl)-1,2,3,4-tetrahydroisoquinolin-6-yl]pyridin-3-yl]acetic Acid] | 1 nM |
| Cc1nc(C)c([C@H](OC(C)(C)C)C(=O)O)c(N2CCC(C)(C)CC2)c1-c1ccc2c(c1)CCN(c1nccc(-c3cccnc3)n1)C2 [Example 105, (S)-2-(tert-Butoxy)-2-(4-(4,4-dimethylpiperidin-1-yl)-2,6-dimethyl-5-(2-(4-(pyridin-3-yl)pyrimidin-2-yl)-1,2,3,4-tetrahydroisoquinolin-6-yl)pyridin-3-yl)acetic Acid] | 1 nM |
| Cc1cc(F)ccc1CN1CCc2cc(-c3cnc(C)c([C@H](OC(C)(C)C)C(=O)O)c3N3CCC(C)(C)CC3)ccc2C1 [Example 51, (2S)-2-(tert-Butoxy)-2-[4-(4,4-dimethylpiperidin-1-yl)-5-{2-[(4-fluoro-2-methylphenyl)methyl]-1,2,3,4-tetrahydroisoquinolin-6-yl}-2-methylpyridin-3-yl]acetic Acid] | 4 nM |
